# Data taken from US20220056019A1, “FARNESOID X RECEPTOR AGONISTS AND USES THEREOF” (Metacrine, Inc., priority 2018, published 2022).
# Target: T1, hFXR (Homo sapiens, UniProt Q96RI1)
# T1 construct: expressed in transfected cells; host or cells: CV-1 cells
# T1 sequence (Q96RI1 1-486): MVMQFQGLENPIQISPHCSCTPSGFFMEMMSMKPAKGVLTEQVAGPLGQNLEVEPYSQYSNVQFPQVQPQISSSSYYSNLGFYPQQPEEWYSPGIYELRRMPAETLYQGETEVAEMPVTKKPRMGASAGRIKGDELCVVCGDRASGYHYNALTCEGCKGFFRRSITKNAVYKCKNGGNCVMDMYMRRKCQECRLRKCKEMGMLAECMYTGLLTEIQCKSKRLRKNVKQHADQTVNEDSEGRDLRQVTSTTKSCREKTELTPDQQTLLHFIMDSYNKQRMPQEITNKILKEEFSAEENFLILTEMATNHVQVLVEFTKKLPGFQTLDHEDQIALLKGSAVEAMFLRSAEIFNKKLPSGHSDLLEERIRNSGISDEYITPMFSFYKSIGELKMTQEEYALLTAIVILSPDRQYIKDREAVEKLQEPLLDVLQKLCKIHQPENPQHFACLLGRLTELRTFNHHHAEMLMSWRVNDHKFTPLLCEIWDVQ
# T1 sequence (P19793 1-462 partner): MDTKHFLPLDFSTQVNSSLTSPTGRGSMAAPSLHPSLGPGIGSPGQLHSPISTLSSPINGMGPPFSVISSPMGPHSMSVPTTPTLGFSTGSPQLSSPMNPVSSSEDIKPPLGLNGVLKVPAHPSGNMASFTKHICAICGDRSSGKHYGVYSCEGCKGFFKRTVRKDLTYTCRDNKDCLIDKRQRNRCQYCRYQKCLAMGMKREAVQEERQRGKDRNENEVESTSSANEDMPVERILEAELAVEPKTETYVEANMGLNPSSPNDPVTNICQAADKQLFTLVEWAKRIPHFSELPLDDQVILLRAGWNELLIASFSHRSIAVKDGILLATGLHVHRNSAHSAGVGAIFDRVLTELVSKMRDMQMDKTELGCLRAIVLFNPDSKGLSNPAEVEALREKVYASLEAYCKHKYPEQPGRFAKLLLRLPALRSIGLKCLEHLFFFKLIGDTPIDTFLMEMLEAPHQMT
# Test: In Vitro FXR Assay (TK): TK-ECRE-luc reporter in transfected CV-1 cells
# Type: cell-based
# Conditions: 18 hrs incubation, luminescence
# Outline: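 CV-1 cells in DMEM with 10% charcoal-stripped FBS were transiently co-transfected with hFXR, hRXR, TK-ECRE-luc reporter and pCMX-YFP plasmids over 18 h at 37 °C. Compounds serially diluted in DMSO were added for 18 h; cells were then lysed and luciferase luminescence measured.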
row,EC50 [nM],SMILES
1,≤ 50,"COc1ccc(C23CCC(CN(c4cc(-c5cnn(C(C)C)c5)ccn4)C(=O)[C@H]4CC[C@H](OC(=O)N5CC(OCCO)C5)CC4)(CC2)CC3)cc1C [Compound 4.10, 4-((4-(1-Isopropyl-1H-pyrazol-4-yl)pyridin-2-yl)((4-(4-methoxy-3-methylphenyl)bicyclo [2.2.2]octan-1-yl)methyl)carbamoyl)cyclohexyl 3-(2-hydroxyethoxy) azetidine- trans-1-carboxylate]"
2,≤ 50,"COc1ccc(C23CCC(CN(c4cc(-c5cnn(C(C)C)c5)ccn4)C(=O)[C@H]4CC[C@H](OC(=O)N5CC(S(C)(=O)=O)C5)CC4)(CC2)CC3)cc1C [Compound 4.11, 4-((4-(1-Isopropyl-1H-pyrazol-4-yl)pyridin-2-yl)((4-(4-methoxy-3-methylphenyl)bicyclo [2.2.2]octan-1-yl)methyl)carbamoyl)cyclohexyl 3-(methylsulfonyl) azetidine-trans-1-carboxylate]"
3,≤ 50,"COc1ccc(C23CCC(CN(c4cc(-c5cnn(C(C)C)c5)ccn4)C(=O)[C@H]4CC[C@H](OC(=O)N5CC(N(C)C)C5)CC4)(CC2)CC3)cc1C [Compound 4.12, 4-((4-(1-Isopropyl-1H-pyrazol-4-yl)pyridin-2-yl)((4-(4-methoxy-3-methylphenyl)bicyclo [2.2.2]octan-1-yl)methyl)carbamoyl)cyclohexyl 3-(dimethylamino) azetidine-trans-1-carboxylate]"
4,≤ 50,"COc1ccc(C23CCC(CN(c4cc(-c5cnn(C(C)C)c5)ccn4)C(=O)[C@H]4CC[C@H](OC(=O)NC5COC5)CC4)(CC2)CC3)cc1C [Compound 4.13, 4-((4-(1-Isopropyl-1H-pyrazol-4-yl)pyridin-2-yl)((4-(4-methoxy-3-methylphenyl)bicyclo [2.2.2]octan-1-yl)methyl)carbamoyl)cyclohexyl trans-oxetan-3-ylcarbamate]"
5,≤ 50,"COc1ccc(C23CCC(CN(c4cc(-c5cnn(C(C)C)c5)ccn4)C(=O)[C@H]4CC[C@H](OC(=O)N5CCOCC5)CC4)(CC2)CC3)cc1C [Compound 4.14, 4-((4-(1-Isopropyl-1H-pyrazol-4-yl)pyridin-2-yl)((4-(4-methoxy-3-methylphenyl)bicyclo [2.2.2]octan-1-yl)methyl)carbamoyl)cyclohexyl morpholine-trans-4-carboxylate]"
6,≤ 50,"COc1ccc(C23CCC(CN(c4cc(-c5cnn(C(C)C)c5)ccn4)C(=O)[C@H]4CC[C@H](OC(=O)N5CCN(C)CC5)CC4)(CC2)CC3)cc1C [Compound 4.15, 4-((4-(1-Isopropyl-1H-pyrazol-4-yl)pyridin-2-yl)((4-(4-methoxy-3-methylphenyl)bicyclo [2.2.2]octan-1-yl)methyl)carbamoyl)cyclohexyl 4-methylpiperazine-trans-1-carboxylate]"
7,≤ 50,"COc1ccc(C23CCC(CN(c4cc(-c5cnn(C(C)C)c5)ccn4)C(=O)[C@H]4CC[C@H](OC(=O)N5CC(O)C5)CC4)(CC2)CC3)cc1Cl [Compound 4.16, 4-(((4-(3-Chloro-4-methoxyphenyl)bicyclo [2.2.2]octan-1-yl)methyl) (4-(1-isopropyl-1H-pyrazol-4-yl)pyridin-2-yl)carbamoyl)cyclohexyl hydroxyazetidine-1-carboxylate]"
8,≤ 50,"COc1ccc(C23CCC(CN(c4cc(-n5cnc(C6CC6)n5)ccn4)C(=O)[C@H]4CC[C@H](OC(=O)N5CC(O)C5)CC4)(CC2)CC3)cc1C [Compound 4.17, 4-((4-(3-Cyclopropyl-1H-t1,2,4-riazol-1-yl)pyridin-2-yl)((4-(4-methoxy-3-methylphenyl)bicyclo [2.2.2]octan-1-yl)methyl)carbamoyl)cyclohexyl 3-hydroxyazetidine-trans-1-carboxylate]"
9,≤ 50,"COc1ccc(C23CCC(CN(c4cc(-n5cnc(C(C)C)n5)ccn4)C(=O)[C@H]4CC[C@H](OC(=O)N5CC(O)C5)CC4)(CC2)CC3)cc1C [Compound 4.18, 4-((4-(3-Isopropyl-1H-1,2,4-triazol-1-yl)pyridin-2-yl)((4-(4-methoxy-3-methylphenyl)bicyclo [2.2.2]octan-1-yl)methyl)carbamoyl)cyclohexyl 3-hydroxyazetidine-trans-1-carboxylate]"
10,≤ 50,"COc1ccc(C23CCC(CN(c4cc(-c5cnn(C(F)(F)F)c5)ccn4)C(=O)[C@H]4CC[C@H](OC(=O)N5CC(O)C5)CC4)(CC2)CC3)cc1C [Compound 4.19, 4-(((4-(4-Methoxy-3-methylphenyl)bicyclo [2.2.2]octan-1-yl)methyl) (4-(1-(trifluoromethyl)-1H-pyrazol-4-yl)pyridin-2-yl)carbamoyl) cyclohexyl 3-hydroxyazetidine-trans-1-carboxylate]"
11,≤ 50,"CCc1ncc(-c2ccnc(N(CC34CCC(c5ccc(OC)c(C)c5)(CC3)CC4)C(=O)[C@H]3CC[C@H](OC(=O)N4CC(O)C4)CC3)c2)s1 [Compound 4.20, 4-((4-(2-Ethylthiazol-5-yl)pyridin-2-yl)((4-(4-methoxy-3-methylphenyl)bicyclo[2.2.2]octan-1-yl)methyl)carbamoyl) cyclohexyl 3-hydroxyazetidine-trans-1-carboxylate]"
12,≤ 50,"COc1ccc(C23CCC(CN(c4cc(-c5cnc(C(C)C)s5)ccn4)C(=O)[C@H]4CC[C@H](OC(=O)N5CC(O)C5)CC4)(CC2)CC3)cc1C [Compound 4.21, 4-((4-(2-Isopropylthiazol-5-yl)pyridin-2-yl)((4-(4-methoxy-3-methylphenyl)bicyclo[2.2.2]octan-1-yl)methyl)carbamoyl) cyclohexyl 3-hydroxyazetidine-trans-1-carboxylate]"
13,≤ 50,"CCc1nc(-c2ccnc(N(CC34CCC(c5ccc(OC)c(C)c5)(CC3)CC4)C(=O)[C@H]3CC[C@H](OC(=O)N4CC(O)C4)CC3)c2)co1 [Compound 4.22, 4-((4-(2-Ethyloxazol-4-yl)pyridin-2-yl)((4-(4-methoxy-3-methylphenyl)bicyclo[2.2.2]octan-1-yl)methyl)carbamoyl) cyclohexyl 3-hydroxyazetidine-trans-1-carboxylate]"
14,≤ 50,"COc1ccc(C23CCC(CN(c4cc(-c5coc(C(C)C)n5)ccn4)C(=O)[C@H]4CC[C@H](OC(=O)N5CC(O)C5)CC4)(CC2)CC3)cc1C [Compound 4.23, 4-((4-(2-Isopropyloxazol-4-yl)pyridin-2-yl)((4-(4-methoxy-3-methylphenyl)bicyclo[2.2.2]octan-1-yl)methyl)carbamoyl) cyclohexyl 3-hydroxyazetidine-trans-1-carboxylate]"
15,≤ 50,"COc1ccc(C23CCC(CN(c4cc(-c5cnc(C6CC6)o5)ccn4)C(=O)[C@H]4CC[C@H](OC(=O)N5CC(O)C5)CC4)(CC2)CC3)cc1C [Compound 4.24, 4-((4-(2-Cyclopropyloxazol-5-yl)pyridin-2-yl)((4-(4-methoxy-3-methylphenyl)bicyclo [2.2.2]octan-1-yl)methyl)carbamoyl) cyclohexyl 3-hydroxyazetidine-trans-1-carboxylate]"
16,≤ 50,"COc1ccc(C23CCC(CN(c4cc(-c5cnc(C(C)C)o5)ccn4)C(=O)[C@H]4CC[C@H](OC(=O)N5CC(O)C5)CC4)(CC2)CC3)cc1C [Compound 4.25, 4-((4-(2-Isopropyloxazol-5-yl)pyridin-2-yl)((4-(4-methoxy-3-methylphenyl)bicyclo[2.2.2]octan-1-yl)methyl)carbamoyl) cyclohexyl 3-hydroxyazetidine-trans-1-carboxylate]"
